Patent publication US6608086B2, “Dihydropyridines and new uses thereof” (Synaptic Pharmaceutical Corporation, priority 1993, dated 2003)
Counter-ions that a name gives are not always drawn.

Experiments:
canine prostate = test: In vivo dog prostate model: inhibition of phenylephrine-induced increase in urethral pressure in anesthetized dogs; conditions: In Vivo Dog Prostate Model; phenylephrine-induced contraction, urethral pressure
Experimental: Protocol for In Vivo Evaluation of Compounds in Canine Prostate
Adult male mongrel dogs more than one year of age were chosen for the model. After induction of general anesthesia using sodium pentobarbital (25 mg/Kg i.v.), the animals were intubated and allowed to breathe spontaneously. An arterial catheter was inserted via the femoral artery to monitor blood pressure and i.v. line was inserted into the leg for fluid and drug administration. A constant saline infusion was maintained at 40 to 50 mL/h. Next, a seven cm lower abdominal incision was made one cm lateral to the penis.
The bladder, prostate and a short segment of urethra were identified and isolated, without damage to the nerves or blood vessels. A cystotomy incision was made through which the pressure catheter was inserted and positioned in the prostatic urethra. The cystotomy was not closed, but the wound edges were sutured to stop bleeding. The tip of the catheter was positioned just distal to the prostate and secured in place with an O-silk tie around the urethra. A second holding suture at the bladder neck secured the catheter in place.
Fluid, either water or saline, was pumped by a Harvard infusion pump at 0.1 mL/min through a Gould pressure transducer into the catheter. The fluid exists at a port in the catheter which is in the prostatic urethra. Occlusion of the port, by contraction of the prostate, blocks the flow and a pressure wave is created. This pressure is transmitted back through the catheter to the transducer which is attached to a Gould recorder. Squeezing the prostate gland caused an increase in urethral pressure which verified the correct position in the urethra.
The compounds were tested as follows: A dose response curve was first generated for phenylephrine alone, in doses ranging from one μg/Kg to 50 μg/Kg. The absolute rise in urethral pressure was recorded for each dose and the next dose given when the urethral pressure returned to baseline. Phenylephrine dose response curves were generated in all animals tested. Increasing doses of compounds were then given, and the phenylephrine dose response curve repeated in the prepense of each dose of the compound. No animal received more than one compound; four animals were used to test each compound. To test for tachyphylaxis, four separate dogs were challenged with repeated phenylephrine doses for six hrs, the usual length of each experiment. From the dose-effect data, the inhibition constant (Ki) and the median-effect dose (ED50) were calculated. Both the Ki and ED50 values given are calculated by using microcomputer software and an IBM-PC.

human prostatic tissue = test: In vitro human prostate model: block of phenylephrine-induced contraction of human prostatic tissue; format: cell-based; conditions: In Vitro Human Prostate Model; phenylephrine-induced contraction
Source text: The protocol for these experiments is given below.
Functional Properties of α1 Antagonists in the Human Prostate
The efficacy of α1 adrenergic antagonists for the treatment of benign prostatic hyperplasia (BPH) is related to their ability to elicit relaxation of prostate smooth muscle. An index of this efficacy can be obtained by determining the potency of al antagonists to antagonize the contraction of human prostatic tissue induced by an α1 agonist “in vitro”. Furthermore, by comparing the potency of subtype selective α1 antagonists in binding assays using human α1 receptors with their potency to inhibit agonist-induced smooth muscle contraction, it is possible to determine which of the α1 adrenergic receptor subtypes is involved in the contraction of prostate smooth muscle.
Prostatic adenomas were obtained at the time of surgery from patients with symptomatic BPH. […] The baths were maintained at 37° C. and continuously oxygenated with 5% CO2 and 95% O2. Isometric tension was measured with a Grass Instrument FT03 force transducer interfaced with a computer. Tissue strips were contracted with varying concentrations of phenylephrine after incubating for 20 minutes in the absence and presence of at least three different concentrations of antagonist. Dose-response curves for phenylephrine were constructed, and the antagonist potency (pA2) was estimated by the dose-ratio method. The concentration of some antagonists in the tissue bath was assessed by measuring the displacement of [3H]prazosin by aliquots of the bath medium, using membrane preparations of the cloned human α1C receptor. This control was necessary to account for losses of antagonist due to adsorption to the tissue bath and/or metabolism during the time the antagonists were equilibrated with the prostate tissue.

L-type calcium channel = target: T1, L-type calcium channel (Rattus norvegicus, UniProt P22002); test: Competition binding of [3H]nitrendipine to membrane fragments of rat cardiac muscle; conditions: [3H]nitrendipine, rat cardiac muscle membranes; mean; read-out: PKi Ca (converted)
T1 construct: membrane fragments of rat cardiac muscle; from tissue; host or cells: rat cardiac muscle membranes

α2A receptor = target: T2, α2A receptor (Homo sapiens, UniProt P08913); test: Competition binding, [3H]rauwolscine, human α2A receptor; conditions: [3H]rauwolscine, human receptor, LM(tk-) cell lysates; mean; read-out: PKi alpha-2 2a (converted)
T2 construct: host or cells: LM(tk-) cells, line L-α2A
T2 sequence (P08913 1-465): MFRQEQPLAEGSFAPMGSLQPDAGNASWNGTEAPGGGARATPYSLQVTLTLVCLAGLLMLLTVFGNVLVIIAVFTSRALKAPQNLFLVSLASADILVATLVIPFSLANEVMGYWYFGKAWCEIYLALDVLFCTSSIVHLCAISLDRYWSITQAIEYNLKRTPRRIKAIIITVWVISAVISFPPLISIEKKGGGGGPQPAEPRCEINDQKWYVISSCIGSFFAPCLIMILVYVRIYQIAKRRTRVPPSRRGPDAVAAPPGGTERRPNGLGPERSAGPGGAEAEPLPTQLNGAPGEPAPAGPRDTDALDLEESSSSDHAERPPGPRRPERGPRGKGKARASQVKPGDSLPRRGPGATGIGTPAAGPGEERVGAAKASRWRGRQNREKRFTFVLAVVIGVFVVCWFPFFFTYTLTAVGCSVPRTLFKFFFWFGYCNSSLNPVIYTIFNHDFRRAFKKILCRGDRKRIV
Source text: (§1) The protocols for these experiments are given below.
(§2) α2 Human Adrenergic Receptors:
(§3) To determine the potency of […], antagonists at the α2 receptors, LM(tk−) cell lines stably transfected with the genes encoding the α2A, α2B, and α2C receptors were used. The cell line expressing the α2A receptor is designated L-α2A, and was deposited on Nov. […] The cell line expressing the α2B receptor is designated L-NGC-α2B, and was deposited on Oct. […] The cell line expressing the α2C receptor is designated L-α2C, and was deposited on Nov. […] Cell lysates were prepared as described above (see Radioligand Binding Assays), and suspended in 25 mM glycylglycine buffer (pH 7.6 at room temperature). Equilibrium competition binding assay were performed using [3H]rauwolscine (0.5 nM), and nonspecific binding was determined by incubation with 10 μM phentolamine. The bound radioligand was separated by filtration through GF/B filters using a cell harvester.

α2B receptor = target: T3, α2B receptor (Homo sapiens, UniProt P18089); test: Competition binding, [3H]rauwolscine, human α2B receptor; conditions: [3H]rauwolscine, human receptor, LM(tk-) cell lysates; mean; read-out: PKi alpha-2 2b (converted)
T3 construct: host or cells: LM(tk-) cells, line L-NGC-α2B
T3 sequence (P18089 1-450): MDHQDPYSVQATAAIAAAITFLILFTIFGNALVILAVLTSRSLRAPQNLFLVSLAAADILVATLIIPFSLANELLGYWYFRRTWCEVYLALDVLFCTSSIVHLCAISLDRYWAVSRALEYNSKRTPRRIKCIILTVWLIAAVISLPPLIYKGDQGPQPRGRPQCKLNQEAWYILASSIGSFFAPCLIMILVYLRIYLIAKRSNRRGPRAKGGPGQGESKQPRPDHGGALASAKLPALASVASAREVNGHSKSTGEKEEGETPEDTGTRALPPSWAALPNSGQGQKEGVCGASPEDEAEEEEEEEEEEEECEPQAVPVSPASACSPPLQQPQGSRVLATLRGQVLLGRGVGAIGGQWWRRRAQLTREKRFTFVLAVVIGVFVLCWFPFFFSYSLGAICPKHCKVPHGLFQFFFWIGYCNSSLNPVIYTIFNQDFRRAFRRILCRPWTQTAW
Source text: as §1, §2, §3

α2C receptor = target: T4, α2C receptor (Homo sapiens, UniProt P18825); test: Competition binding, [3H]rauwolscine, human α2C receptor; conditions: [3H]rauwolscine, human receptor, LM(tk-) cell lysates; mean; read-out: PKi alpha-2 2c (converted)
T4 construct: host or cells: LM(tk-) cells, line L-α2C
T4 sequence (P18825 1-462): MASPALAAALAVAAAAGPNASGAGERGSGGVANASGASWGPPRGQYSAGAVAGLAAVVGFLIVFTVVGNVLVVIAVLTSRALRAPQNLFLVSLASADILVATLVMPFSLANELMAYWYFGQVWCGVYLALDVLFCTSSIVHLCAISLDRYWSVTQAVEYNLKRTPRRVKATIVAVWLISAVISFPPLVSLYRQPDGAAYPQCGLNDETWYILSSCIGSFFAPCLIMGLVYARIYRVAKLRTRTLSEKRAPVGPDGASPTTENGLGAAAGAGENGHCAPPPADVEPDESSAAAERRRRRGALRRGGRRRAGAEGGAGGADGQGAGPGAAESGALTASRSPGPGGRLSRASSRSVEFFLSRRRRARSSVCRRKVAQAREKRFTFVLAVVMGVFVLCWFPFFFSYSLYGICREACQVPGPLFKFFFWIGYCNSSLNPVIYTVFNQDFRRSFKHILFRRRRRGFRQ
Source text: as §1, §2, §3

T1 sequence (P22002 whole entry, other chains not shown, the tested form may be a part): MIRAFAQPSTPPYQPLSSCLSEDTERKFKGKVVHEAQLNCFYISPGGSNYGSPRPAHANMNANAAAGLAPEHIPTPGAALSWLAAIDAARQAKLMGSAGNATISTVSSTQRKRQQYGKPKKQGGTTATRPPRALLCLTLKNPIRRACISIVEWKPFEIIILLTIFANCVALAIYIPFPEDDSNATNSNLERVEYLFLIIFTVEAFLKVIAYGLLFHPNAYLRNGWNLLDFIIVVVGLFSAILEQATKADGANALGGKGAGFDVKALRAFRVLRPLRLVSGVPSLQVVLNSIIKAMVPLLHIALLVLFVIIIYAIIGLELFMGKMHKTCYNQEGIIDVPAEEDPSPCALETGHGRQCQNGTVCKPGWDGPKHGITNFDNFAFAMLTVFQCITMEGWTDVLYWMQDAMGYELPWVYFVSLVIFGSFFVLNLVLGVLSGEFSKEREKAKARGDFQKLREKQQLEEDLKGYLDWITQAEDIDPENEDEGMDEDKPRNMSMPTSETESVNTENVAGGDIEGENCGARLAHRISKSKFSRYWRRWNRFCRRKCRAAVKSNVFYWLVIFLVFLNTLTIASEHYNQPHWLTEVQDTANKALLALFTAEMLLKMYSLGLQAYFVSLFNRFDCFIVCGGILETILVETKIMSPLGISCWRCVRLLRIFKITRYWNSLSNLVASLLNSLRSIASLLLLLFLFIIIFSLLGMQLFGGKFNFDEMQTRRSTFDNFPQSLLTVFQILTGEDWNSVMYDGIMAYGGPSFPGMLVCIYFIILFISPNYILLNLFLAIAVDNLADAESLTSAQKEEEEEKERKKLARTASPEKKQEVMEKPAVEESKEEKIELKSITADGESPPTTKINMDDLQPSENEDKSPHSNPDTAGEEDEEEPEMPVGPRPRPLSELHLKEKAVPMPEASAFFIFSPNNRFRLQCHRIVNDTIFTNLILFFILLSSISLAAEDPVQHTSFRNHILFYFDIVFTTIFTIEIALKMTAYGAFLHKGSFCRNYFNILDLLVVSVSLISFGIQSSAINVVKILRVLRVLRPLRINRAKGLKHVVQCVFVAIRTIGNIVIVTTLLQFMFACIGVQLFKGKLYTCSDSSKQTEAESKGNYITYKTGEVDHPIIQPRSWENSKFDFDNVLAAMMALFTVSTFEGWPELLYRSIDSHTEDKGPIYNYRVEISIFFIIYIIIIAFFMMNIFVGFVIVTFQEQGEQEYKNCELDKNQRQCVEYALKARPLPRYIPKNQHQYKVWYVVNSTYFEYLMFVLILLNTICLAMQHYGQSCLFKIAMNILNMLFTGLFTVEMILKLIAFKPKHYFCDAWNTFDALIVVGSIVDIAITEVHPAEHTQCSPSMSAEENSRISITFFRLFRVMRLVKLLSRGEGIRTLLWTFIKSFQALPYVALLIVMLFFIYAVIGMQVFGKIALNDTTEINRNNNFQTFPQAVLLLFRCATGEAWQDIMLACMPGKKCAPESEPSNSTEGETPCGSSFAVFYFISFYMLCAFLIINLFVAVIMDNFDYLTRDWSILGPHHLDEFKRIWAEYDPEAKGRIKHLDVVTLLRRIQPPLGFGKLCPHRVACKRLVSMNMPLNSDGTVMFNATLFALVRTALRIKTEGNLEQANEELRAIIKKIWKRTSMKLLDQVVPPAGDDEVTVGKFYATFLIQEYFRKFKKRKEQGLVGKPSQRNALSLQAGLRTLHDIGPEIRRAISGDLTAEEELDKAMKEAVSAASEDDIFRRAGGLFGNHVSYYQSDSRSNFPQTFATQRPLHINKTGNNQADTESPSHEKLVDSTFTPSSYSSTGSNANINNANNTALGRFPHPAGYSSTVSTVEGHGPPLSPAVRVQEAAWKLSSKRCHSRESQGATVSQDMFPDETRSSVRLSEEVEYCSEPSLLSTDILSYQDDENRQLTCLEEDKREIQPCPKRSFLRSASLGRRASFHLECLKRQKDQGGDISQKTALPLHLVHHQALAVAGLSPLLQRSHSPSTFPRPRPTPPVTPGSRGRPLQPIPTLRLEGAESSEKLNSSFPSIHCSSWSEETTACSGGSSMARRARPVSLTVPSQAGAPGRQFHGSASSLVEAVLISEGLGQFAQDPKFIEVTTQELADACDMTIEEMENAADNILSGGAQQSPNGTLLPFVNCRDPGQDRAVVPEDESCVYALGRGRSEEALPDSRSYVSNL
T1 sequence (P54290 25-944 partner limits assumed, other chains not shown): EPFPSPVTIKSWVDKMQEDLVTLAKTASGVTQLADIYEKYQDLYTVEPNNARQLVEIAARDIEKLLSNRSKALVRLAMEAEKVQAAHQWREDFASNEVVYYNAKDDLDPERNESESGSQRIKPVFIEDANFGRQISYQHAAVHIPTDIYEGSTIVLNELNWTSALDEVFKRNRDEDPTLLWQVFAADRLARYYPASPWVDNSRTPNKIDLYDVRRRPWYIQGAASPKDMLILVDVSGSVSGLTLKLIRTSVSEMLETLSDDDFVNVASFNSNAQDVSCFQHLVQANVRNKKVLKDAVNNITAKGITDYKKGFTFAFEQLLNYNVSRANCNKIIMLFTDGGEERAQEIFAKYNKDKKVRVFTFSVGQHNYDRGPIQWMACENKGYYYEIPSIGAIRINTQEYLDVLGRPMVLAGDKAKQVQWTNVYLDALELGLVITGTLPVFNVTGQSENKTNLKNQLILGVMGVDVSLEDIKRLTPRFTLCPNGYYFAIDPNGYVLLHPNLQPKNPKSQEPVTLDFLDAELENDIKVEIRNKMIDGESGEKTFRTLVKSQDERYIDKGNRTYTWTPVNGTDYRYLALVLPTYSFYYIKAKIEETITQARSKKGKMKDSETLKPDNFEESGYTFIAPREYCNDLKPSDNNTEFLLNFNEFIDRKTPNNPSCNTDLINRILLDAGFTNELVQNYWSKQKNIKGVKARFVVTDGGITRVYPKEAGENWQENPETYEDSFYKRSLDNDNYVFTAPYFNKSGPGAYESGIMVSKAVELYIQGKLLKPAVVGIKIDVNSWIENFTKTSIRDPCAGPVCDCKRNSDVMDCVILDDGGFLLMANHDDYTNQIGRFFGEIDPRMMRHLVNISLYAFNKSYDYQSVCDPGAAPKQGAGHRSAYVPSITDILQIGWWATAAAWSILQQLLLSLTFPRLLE
T1 sequence (P54290 945-1091 partner limits assumed, other chains not shown): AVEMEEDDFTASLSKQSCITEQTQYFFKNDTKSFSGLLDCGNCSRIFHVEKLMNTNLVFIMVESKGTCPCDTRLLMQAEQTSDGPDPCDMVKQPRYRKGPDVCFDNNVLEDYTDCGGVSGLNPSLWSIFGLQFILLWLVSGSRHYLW

Row | Compound | Ki (canine prostate) | pKi (human prostatic tissue) | Ki (L-type calcium channel) | melting point | Ki (α2A receptor) | Ki (α2B receptor) | Ki (α2C receptor)
1 | COC(=O)C1=C(C)NC(C)=C(C(=O)NCCCN2CCC(c3ccccc3)(c3ccccc3)CC2)C1c1ccc([N+](=O)[O-])cc1 (racemic) [(±)-93, hydrochloride hydrate] | 7.6 nmol/kg | 7.28 ± 0.4 |  |  |  |  | 
2 | CCOC(=O)C1(c2ccccc2)CCN(CCCNC(=O)C2=C(C)NC(C)=C(C(C)=O)C2c2ccc([N+](=O)[O-])cc2)CC1 (racemic) [Example 202, 5-Acetyl-1,4-dihydro-2,6-dimethyl-3-{N-[3-(4-ethoxycarbonyl-4-phenylpiperidin-1-yl)propyl]}carboxamido-4-(4-nitrophenyl)pyridine] |  |  | 263 µM | 89 to 90 °C | 4.47 µM | 0.912 µM | 2.14 µM
